One series deals with ATM (Homo sapiens (Human), UniProt Q13315). In words: Cellular ATM inhibition, pCHK2 Thr68 after UV mimetic 4NQO. To be noted: HT-29, read-out: UV mimetic inhibition of CHK2P at 10 μM (%); 10 μM compound, 3 μM 4NQO, HT29 cells. The format is cell-based. From the text: (§1) ATM and ATR have distinct and overlapping responses to DNA damage. They must participate together and responses must be coordinated. Both pathways may be activated by ionizing radiation, and UV. As UV treatment is not practical for use in a high throughput cell assay, the UV mimetic 4NQO (Sigma) was chosen to activate the ATR and ATM DNA damage response pathway.
(§2) Chk1, a downstream protein kinase of ATR, has a key role in DNA damage checkpoint control, as well as Chk2 downstream of ATM. […] This assay measures a decrease in phosphorylation of Chk1 (Ser 345) and […] in HT29 colon adenocarcinoma cells following treatment with compound and the UV mimetic 4NQO. Compounds at 1 mM were created by diluting in 100% DMSO and then diluted 1:100 into assay media (RPMI, 10% FCS, 1% glutamine). Cells were plated in 6 well Costar plates at 5×10^5 cells per mL in 2 mL RPMI, 10% FCS, 1% glutamine and grown for 24 hrs. Following addition of compound the cells were incubated for 60 minutes. A final concentration of 3 μM 4NQO (prepared in 100% DMSO) was then added and the cells incubated for a further 60 mins. The cells are lysed and pChk1 Ser345 and pCHK2 Thr68 (Cell Signaling Technology, #2661) versus total CHK1 and CHK2 (Santa Cruz Biotechnology, se-5278) respectively has analysed by western blot as described above. The percentage of phosphorylated CHK1 versus total CHK1 or p-CHK2 versus total CHK2 in cells treated with 4NQO was taken as hundred percent of phosphorylation. The percentage of CHK1 or CHK2 phosphorylation is finally plotted against concentration for each compound and EC50s for intracellular ATR inhibition are calculated using ActivityBase from IDBS.

Another series deals with CYP 2C9 (Homo sapiens (Human), UniProt P11712). In words: CYP inhibition assay (P450-Glo). To be noted: read-out: P450-2C9 IC50; recombinant CYP.
The next series addresses CYP 3A4 (Homo sapiens (Human), UniProt P08684). Put plainly: CYP inhibition assay (P450-Glo). To be noted: read-out: P450-3A4 IC50; recombinant CYP.
A further series has as its target CYP 1A2 (Homo sapiens (Human), UniProt P05177). Put plainly: CYP inhibition assay (P450-Glo). It is filed as in vitro ADME. The note with it: recombinant CYP.
Series [1] deals with T1, ATR (Homo sapiens (Human), UniProt Q13535). Put plainly: Cellular ATR inhibition, pChk1 Ser345 after UV mimetic 4NQO. The format is cell-based. To be noted: HT-29, read-out: UV mimetic inhibition of CHK1P at 10 μM (%); 10 μM compound, 3 μM 4NQO, HT29 cells.
Text: as §1, §2

In a further series the test system is Eμmyc lymphoma cells. In words: In vivo efficacy, mice injected intravenously with Eμmyc lymphoma cells. To be noted: C57BL/6 mice. The procedure: The efficacy of compounds of the invention alone or in combination with chemotherapeutics agents were measured in vivo by implanting allografts or xenografts of cancer cells in rodents and treating the tumour-bearing animals with the compounds alone or in combination with chemotherapeutics agents.
Recipient mice were monitored for tumor formation by the presence of tumoral cells in the blood (LDH measurement), and twice a week by palpation of the pre-scapular and cervical lymph-nodes, once a week by sonography measurement of thoracic lymph-nodes size. […] Efficacy of the treatment was done evaluating the relative weight of all tumoral tissues (spleen, salivary lymph-nodes, mammary lymph-nodes, thymus and mesenteric lymph-nodes) versus body weight substrating the relative weight of same normal tissues. Bars represent standard error of the mean (n=8).

For the next series, the target named is CYP 2C19 (Homo sapiens (Human), UniProt P33261). Put plainly: CYP inhibition assay (P450-Glo). It is filed as in vitro ADME. The note with it: recombinant CYP.
Series [2] deals with T1, ATR. In words: Cellular ATR inhibition, western blot of CHK1(S345) phosphorylation in hydroxyurea treated cells. It is filed as cell-based. To be noted: HT29 cells, hydroxyurea 2.5 mM. The method, boiled down: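 HT29 cells exposed to compound (3-fold dilutions from 10 μM final) for 15 min, then 2.5 mM hydroxyurea for 30 min at 37 °C. Lysates blotted for pS345-CHK1 and total CHK1, infrared-imaged; ratio normalized to hydroxyurea-only cells as 100%, EC50 from concentration–response.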
A general note: A western blot detects proteins with antibodies after separation by electrophoresis.

The target in a further series is CYP 2D6 (Homo sapiens (Human), UniProt P10635). In words: CYP inhibition assay (P450-Glo). The format is in vitro ADME. To be noted: recombinant CYP.

The structures appear in SMILES notation.

Sequence of ATM (Q13315 whole entry): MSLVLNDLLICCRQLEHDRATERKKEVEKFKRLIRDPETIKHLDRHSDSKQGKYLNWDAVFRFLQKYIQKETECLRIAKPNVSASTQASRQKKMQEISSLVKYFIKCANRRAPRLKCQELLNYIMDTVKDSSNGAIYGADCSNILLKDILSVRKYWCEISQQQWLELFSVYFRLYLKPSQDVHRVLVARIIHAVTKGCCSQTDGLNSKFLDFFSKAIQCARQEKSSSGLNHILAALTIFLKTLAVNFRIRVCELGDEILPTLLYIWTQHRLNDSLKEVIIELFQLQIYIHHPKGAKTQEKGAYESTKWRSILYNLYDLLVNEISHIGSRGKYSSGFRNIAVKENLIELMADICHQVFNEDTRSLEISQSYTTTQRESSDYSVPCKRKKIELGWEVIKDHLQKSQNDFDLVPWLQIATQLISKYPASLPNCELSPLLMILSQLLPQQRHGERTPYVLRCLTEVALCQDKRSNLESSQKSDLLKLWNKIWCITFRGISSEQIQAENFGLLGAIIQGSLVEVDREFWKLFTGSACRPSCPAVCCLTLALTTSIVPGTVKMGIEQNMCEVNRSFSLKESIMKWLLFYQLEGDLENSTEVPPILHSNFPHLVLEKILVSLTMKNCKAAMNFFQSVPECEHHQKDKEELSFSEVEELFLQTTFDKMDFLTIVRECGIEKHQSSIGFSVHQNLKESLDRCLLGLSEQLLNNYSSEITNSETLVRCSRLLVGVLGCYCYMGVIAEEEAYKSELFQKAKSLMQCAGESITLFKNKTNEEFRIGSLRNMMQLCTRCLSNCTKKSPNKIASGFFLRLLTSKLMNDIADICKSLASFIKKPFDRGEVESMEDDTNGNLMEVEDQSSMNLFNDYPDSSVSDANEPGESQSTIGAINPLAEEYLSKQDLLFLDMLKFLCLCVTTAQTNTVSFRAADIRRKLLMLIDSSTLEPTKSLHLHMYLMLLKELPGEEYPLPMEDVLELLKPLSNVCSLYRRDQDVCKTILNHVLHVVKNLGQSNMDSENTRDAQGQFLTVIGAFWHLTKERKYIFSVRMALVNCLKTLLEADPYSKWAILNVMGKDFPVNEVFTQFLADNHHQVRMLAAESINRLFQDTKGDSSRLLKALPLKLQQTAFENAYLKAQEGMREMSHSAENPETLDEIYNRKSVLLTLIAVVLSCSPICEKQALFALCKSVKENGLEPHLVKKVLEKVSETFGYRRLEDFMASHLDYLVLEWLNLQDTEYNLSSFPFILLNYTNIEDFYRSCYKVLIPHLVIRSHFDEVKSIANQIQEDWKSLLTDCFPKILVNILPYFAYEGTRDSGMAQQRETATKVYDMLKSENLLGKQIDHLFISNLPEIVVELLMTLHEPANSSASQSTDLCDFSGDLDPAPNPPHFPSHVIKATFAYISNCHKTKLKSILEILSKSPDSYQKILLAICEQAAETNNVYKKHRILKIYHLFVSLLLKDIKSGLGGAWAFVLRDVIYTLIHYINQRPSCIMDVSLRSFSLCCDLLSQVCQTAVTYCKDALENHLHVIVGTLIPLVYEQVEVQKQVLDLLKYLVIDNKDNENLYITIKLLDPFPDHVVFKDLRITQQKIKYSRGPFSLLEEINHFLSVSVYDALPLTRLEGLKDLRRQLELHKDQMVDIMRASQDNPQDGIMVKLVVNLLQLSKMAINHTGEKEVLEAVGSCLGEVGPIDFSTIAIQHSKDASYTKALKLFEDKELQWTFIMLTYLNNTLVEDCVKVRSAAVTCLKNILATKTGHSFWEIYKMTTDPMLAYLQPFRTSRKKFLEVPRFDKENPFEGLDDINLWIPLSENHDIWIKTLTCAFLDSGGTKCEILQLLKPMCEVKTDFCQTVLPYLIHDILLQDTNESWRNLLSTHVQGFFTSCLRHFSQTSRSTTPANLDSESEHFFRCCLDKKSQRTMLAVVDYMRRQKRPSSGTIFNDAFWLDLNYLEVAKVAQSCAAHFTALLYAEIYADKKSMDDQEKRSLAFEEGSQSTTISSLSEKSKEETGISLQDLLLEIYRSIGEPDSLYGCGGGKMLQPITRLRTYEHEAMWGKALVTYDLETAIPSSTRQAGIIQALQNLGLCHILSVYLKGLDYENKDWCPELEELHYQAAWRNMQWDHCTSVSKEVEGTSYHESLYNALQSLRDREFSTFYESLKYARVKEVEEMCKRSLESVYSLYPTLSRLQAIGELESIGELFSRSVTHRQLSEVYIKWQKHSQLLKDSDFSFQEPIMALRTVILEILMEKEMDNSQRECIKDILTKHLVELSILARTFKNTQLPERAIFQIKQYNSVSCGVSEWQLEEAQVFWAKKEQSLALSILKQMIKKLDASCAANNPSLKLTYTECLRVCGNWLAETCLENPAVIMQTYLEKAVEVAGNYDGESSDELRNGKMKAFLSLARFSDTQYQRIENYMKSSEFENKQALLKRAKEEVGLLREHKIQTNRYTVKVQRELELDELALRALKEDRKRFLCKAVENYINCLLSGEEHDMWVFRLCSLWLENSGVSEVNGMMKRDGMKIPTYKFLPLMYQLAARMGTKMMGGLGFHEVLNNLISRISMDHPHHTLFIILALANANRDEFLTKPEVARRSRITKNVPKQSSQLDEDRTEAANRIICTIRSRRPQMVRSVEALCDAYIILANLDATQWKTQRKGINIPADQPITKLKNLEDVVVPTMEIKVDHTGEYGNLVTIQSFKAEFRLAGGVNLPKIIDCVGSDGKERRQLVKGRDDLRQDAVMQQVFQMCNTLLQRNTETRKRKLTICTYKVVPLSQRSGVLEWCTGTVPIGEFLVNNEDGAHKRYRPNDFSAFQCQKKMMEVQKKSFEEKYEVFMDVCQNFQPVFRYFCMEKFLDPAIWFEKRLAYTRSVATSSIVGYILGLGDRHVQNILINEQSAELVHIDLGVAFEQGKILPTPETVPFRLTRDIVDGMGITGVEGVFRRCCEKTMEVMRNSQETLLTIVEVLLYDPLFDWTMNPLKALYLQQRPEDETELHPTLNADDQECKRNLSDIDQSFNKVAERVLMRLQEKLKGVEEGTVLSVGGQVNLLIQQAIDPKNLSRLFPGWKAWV
Sequence of CYP 2C19 (P33261 whole entry): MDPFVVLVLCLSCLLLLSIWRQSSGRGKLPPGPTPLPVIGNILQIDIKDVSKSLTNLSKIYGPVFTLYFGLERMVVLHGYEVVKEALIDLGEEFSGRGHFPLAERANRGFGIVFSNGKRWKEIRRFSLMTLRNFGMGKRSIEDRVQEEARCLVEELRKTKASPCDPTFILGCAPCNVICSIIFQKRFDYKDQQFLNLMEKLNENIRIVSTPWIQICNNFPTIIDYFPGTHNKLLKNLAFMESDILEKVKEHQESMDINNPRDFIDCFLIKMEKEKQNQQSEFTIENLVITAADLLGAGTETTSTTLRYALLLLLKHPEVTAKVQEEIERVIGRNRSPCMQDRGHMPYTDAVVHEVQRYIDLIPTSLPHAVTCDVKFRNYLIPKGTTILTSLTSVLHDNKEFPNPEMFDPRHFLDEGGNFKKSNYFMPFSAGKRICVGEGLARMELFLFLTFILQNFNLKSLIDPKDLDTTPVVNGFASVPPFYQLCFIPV
Sequence of CYP 1A2 (P05177 whole entry): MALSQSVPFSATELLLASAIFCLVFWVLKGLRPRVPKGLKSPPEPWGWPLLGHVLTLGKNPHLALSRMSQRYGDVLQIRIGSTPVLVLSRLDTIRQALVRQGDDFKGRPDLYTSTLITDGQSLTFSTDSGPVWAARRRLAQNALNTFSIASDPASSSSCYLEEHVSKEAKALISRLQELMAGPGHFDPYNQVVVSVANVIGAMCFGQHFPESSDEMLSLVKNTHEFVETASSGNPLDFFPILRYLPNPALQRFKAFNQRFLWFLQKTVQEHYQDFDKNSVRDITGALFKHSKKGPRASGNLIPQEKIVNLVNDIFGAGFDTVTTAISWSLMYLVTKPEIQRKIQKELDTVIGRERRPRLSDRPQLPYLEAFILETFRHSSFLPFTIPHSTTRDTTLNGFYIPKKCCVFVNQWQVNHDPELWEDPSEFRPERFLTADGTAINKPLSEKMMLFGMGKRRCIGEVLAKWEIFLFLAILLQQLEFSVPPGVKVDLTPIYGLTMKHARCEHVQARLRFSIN
Sequence of CYP 3A4 (P08684 whole entry): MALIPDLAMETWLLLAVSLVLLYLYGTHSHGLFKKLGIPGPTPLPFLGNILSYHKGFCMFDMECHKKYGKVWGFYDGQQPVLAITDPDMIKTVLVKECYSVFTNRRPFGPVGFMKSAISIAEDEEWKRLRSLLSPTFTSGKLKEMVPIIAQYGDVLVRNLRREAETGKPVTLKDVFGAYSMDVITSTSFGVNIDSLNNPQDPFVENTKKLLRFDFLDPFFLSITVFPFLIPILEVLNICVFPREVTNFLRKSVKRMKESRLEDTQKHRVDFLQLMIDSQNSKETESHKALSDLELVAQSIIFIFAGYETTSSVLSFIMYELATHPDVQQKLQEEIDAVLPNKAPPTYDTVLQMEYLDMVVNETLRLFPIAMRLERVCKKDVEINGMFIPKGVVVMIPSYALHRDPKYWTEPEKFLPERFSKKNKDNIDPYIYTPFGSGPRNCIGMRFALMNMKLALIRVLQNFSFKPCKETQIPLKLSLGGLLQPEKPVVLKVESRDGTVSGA
Sequence of CYP 2C9 (P11712 whole entry): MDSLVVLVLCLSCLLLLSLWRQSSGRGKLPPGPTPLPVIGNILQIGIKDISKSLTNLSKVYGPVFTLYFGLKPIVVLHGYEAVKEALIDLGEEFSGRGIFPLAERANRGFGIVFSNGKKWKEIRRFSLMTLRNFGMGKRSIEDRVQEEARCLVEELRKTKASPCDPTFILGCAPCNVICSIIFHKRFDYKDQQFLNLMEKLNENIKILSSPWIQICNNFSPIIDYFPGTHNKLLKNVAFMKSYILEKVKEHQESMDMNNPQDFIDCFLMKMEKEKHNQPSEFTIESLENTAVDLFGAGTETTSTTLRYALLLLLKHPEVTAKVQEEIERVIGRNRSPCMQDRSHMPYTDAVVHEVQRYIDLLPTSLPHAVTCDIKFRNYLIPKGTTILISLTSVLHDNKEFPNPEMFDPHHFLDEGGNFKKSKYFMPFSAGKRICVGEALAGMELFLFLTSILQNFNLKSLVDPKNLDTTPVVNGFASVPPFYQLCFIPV

Turning to `CS(=O)(=O)C1(c2nc(-c3cccc4[nH]ccc34)nc3c2OC[C@@H]2COCCN32)CCOCC1` [Example 3], the inhibition (commonly the relative decrease from the control value, in per cent) at 10 µM at ATM was 0%; on ATR [1] it was 98%. Also, the IC50 at CYP 2C9, on CYP 3A4, on CYP 1A2 and at CYP 2C19 was greater than 50 µM each time. In addition, the “tumor growth inhibition (TGI)” value with Eμmyc lymphoma cells (25 mg/kg oral once daily, day 23, compared to vehicle) is 46%. Besides, on ATR [2], the EC50 – broadly, the concentration that produces a half-maximal response – was less than 0.1 µM.
Consider `CC(C)(c1nc(-c2cccc3[nH]ccc23)nc2c1OCC1COCCN21)S(C)(=O)=O` (stereo not shown) [Example 1], for which the figures for the inhibition at 10 µM on ATM and at ATR [1] were 0% and 99%, respectively. For the same compound, on ATR [2], the half-maximal effective concentration (EC50) is less than 0.1 µM.
For the compound `CNc1nc2ccccc2n1-c1nc2c(c(C(C)(C)S(C)(=O)=O)n1)OCC1COCCN21` (stereo not shown) [Example 8], the inhibition at 10 µM at ATM turned out to be 25%; on ATR [1], 98%. At ATR [2], this compound came in with an EC50 of less than 0.1 µM.
For `CS(=O)(=O)C1(c2nc(-c3cccc4[nH]ccc34)nc3c2OCC2COCCN32)CCOCC1` (stereo not shown) [Example 2], in that order: 0%, 98% and less than 0.1 µM.
On to `CNc1nc2ccccc2n1-c1nc2c(c(C(C)(C)S(C)(=O)=O)n1)OC[C@@H]1COCCN21` [Example 11], for which the IC50 (commonly the concentration that gives 50% inhibition) at CYP 2D6 is greater than 50 µM; at CYP 2C9, 34 µM; on CYP 3A4 it was 39 µM; at CYP 1A2, greater than 50 µM; at CYP 2C19, greater than 50 µM. Besides, the “tumor growth inhibition (TGI)” value in the series with Eμmyc lymphoma cells (25 mg/kg oral once daily, day 33, compared to vehicle) worked out at 53%; with Eμmyc lymphoma cells (50 mg/kg oral once daily, day 33, compared to vehicle) it was 74%. Also, at ATR [2], the EC50 was less than 0.1 µM.
